Data published in PubChem BioAssay AID1963834 (Molecular Pharmacology Branch, DTP, NCI, 2024).

Tested on: 873145-292-R-J1-PDC complex spheroid viability
Experiment: Anticancer human tumor 873145-292-R-J1-PDC patient-derived renal clear cell carcinoma cell line growth inhibition [POLQ]
Details: for IC50: curve of first compound; for viability, T/C: stronger effect = lower value
Summary of the method: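 Growth inhibition in 3D: complex spheroids (tumor PDC, HUVEC, MSC) treated with POLQ inhibitor combinations; where Cmax unknown, highest tested concentration 10 microM, except SN-38 at 1 microM.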

[1] = second compound 0.0316 µM, first compound 0.0316 µM
[2] = second compound 0.0316 µM, first compound 0.1 µM
[3] = second compound 0.0316 µM, first compound 0.316 µM
[4] = second compound 0.0316 µM, first compound 1 µM
[5] = second compound 0.0316 µM, first compound 3.16 µM
[6] = second compound 0.0316 µM, first compound 10 µM
[7] = second compound 0.1 µM, first compound 0.0316 µM
[8] = second compound 0.1 µM, first compound 0.1 µM
[9] = second compound 0.1 µM, first compound 0.316 µM
[10] = second compound 0.1 µM, first compound 1 µM
[11] = second compound 0.1 µM, first compound 3.16 µM
[12] = second compound 0.1 µM, first compound 10 µM
[13] = second compound 0.316 µM, first compound 0.0316 µM
[14] = second compound 0.316 µM, first compound 0.1 µM
[15] = second compound 0.316 µM, first compound 0.316 µM
[16] = second compound 0.316 µM, first compound 1 µM
[17] = second compound 0.316 µM, first compound 3.16 µM
[18] = second compound 0.316 µM, first compound 10 µM
[19] = second compound 1 µM, first compound 0.0316 µM
[20] = second compound 1 µM, first compound 0.1 µM
[21] = second compound 1 µM, first compound 0.316 µM
[22] = second compound 1 µM, first compound 1 µM
[23] = second compound 1 µM, first compound 3.16 µM
[24] = second compound 1 µM, first compound 10 µM
[25] = second compound 3.16 µM, first compound 0.0316 µM
[26] = second compound 3.16 µM, first compound 0.1 µM
[27] = second compound 3.16 µM, first compound 0.316 µM
[28] = second compound 3.16 µM, first compound 1 µM
[29] = second compound 3.16 µM, first compound 3.16 µM
[30] = second compound 3.16 µM, first compound 10 µM
[31] = second compound 10 µM, first compound 0.0316 µM
[32] = second compound 10 µM, first compound 0.1 µM
[33] = second compound 10 µM, first compound 0.316 µM
[34] = second compound 10 µM, first compound 1 µM
[35] = second compound 10 µM, first compound 3.16 µM
[36] = second compound 10 µM, first compound 10 µM
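Further: spheroids exposed to compounds for 7 days before viability readout.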
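Wherever viability, T/C is given: luminescence signal used as surrogate for viable cell content; 100% = DMSO vehicle control viability.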

SMILES: CC1COCCN1c1cc(-c2ccnn2C)c2ccnc(-c3ccn[nH]3)c2n1 (stereo not drawn) + COC1C(OC(N)=O)C(O)C(Oc2ccc3c(O)c(NC(=O)c4ccc(O)c(CC=C(C)C)c4)c(=O)oc3c2C)OC1(C)C
- IC50 (second compound 0.0316 µM): 1520 nM
- IC50 (second compound 0.1 µM): 986 nM
- IC50 (second compound 0.316 µM): 1210 nM
- IC50 (second compound 1 µM): 864 nM
- IC50 (second compound 3.16 µM): 952 nM
- IC50 (second compound 10 µM): 948 nM
- viability, T/C [1]: 86.7%
- viability, T/C [2]: 80.9%
- viability, T/C [3]: 68.6%
- viability, T/C [4]: 54.8%
- viability, T/C [5]: 42.2%
- viability, T/C [6]: 38.5%
- viability, T/C [7]: 94.1%
- viability, T/C [8]: 83.4%
- viability, T/C [9]: 70%
- viability, T/C [10]: 47.1%
- viability, T/C [11]: 43.8%
- viability, T/C [12]: 47.3%
- viability, T/C [13]: 94.2%
- viability, T/C [14]: 76.3%
- viability, T/C [15]: 63.7%
- viability, T/C [16]: 51.6%
- viability, T/C [17]: 41.2%
- viability, T/C [18]: 45.1%
- viability, T/C [19]: 92.5%
- viability, T/C [20]: 80.9%
- viability, T/C [21]: 63.4%
- viability, T/C [22]: 47.6%
- viability, T/C [23]: 42.1%
- viability, T/C [24]: 42.3%
- viability, T/C [25]: 85.1%
- viability, T/C [26]: 79.8%
- viability, T/C [27]: 66.8%
- viability, T/C [28]: 49.9%
- viability, T/C [29]: 38.3%
- viability, T/C [30]: 38.1%
- viability, T/C [31]: 93%
- viability, T/C [32]: 82.8%
- viability, T/C [33]: 67.2%
- viability, T/C [34]: 47.6%
- viability, T/C [35]: 43.7%
- viability, T/C [36]: 41.8%

SMILES: CC1COCCN1c1cc(C2(S(C)(=N)=O)CC2)nc(-c2ccnc3[nH]ccc23)n1 (stereo not drawn) + COC1C(OC(N)=O)C(O)C(Oc2ccc3c(O)c(NC(=O)c4ccc(O)c(CC=C(C)C)c4)c(=O)oc3c2C)OC1(C)C
- IC50 (second compound 0.0316 µM): > 10000 nM
- IC50 (second compound 0.1 µM): > 10000 nM
- IC50 (second compound 0.316 µM): > 10000 nM
- IC50 (second compound 1 µM): > 10000 nM
- IC50 (second compound 3.16 µM): > 10000 nM
- IC50 (second compound 10 µM): > 10000 nM
- viability, T/C [1]: 98.8%
- viability, T/C [2]: 101%
- viability, T/C [3]: 88.6%
- viability, T/C [4]: 88.3%
- viability, T/C [5]: 86.4%
- viability, T/C [6]: 67.8%
- viability, T/C [7]: 105%
- viability, T/C [8]: 94.7%
- viability, T/C [9]: 90.8%
- viability, T/C [10]: 90.1%
- viability, T/C [11]: 81.3%
- viability, T/C [12]: 58.5%
- viability, T/C [13]: 102%
- viability, T/C [14]: 95.6%
- viability, T/C [15]: 90%
- viability, T/C [16]: 82.7%
- viability, T/C [17]: 80.3%
- viability, T/C [18]: 55.8%
- viability, T/C [19]: 100%
- viability, T/C [20]: 90.2%
- viability, T/C [21]: 96.7%
- viability, T/C [22]: 95.6%
- viability, T/C [23]: 85.6%
- viability, T/C [24]: 61.5%
- viability, T/C [25]: 100%
- viability, T/C [26]: 90.1%
- viability, T/C [27]: 103%
- viability, T/C [28]: 82.7%
- viability, T/C [29]: 82.6%
- viability, T/C [30]: 62.2%
- viability, T/C [31]: 95.1%
- viability, T/C [32]: 92.9%
- viability, T/C [33]: 95.6%
- viability, T/C [34]: 81.1%
- viability, T/C [35]: 74.8%
- viability, T/C [36]: 64.6%

SMILES: COc1ccc([C@@H](O)c2cc(-c3ncnc4cc(N5CCOCC5)ccc34)c(F)cc2Cl)nn1 + COC1C(OC(N)=O)C(O)C(Oc2ccc3c(O)c(NC(=O)c4ccc(O)c(CC=C(C)C)c4)c(=O)oc3c2C)OC1(C)C
- IC50 (second compound 0.0316 µM): 4410 nM
- IC50 (second compound 0.1 µM): 4100 nM
- IC50 (second compound 0.316 µM): 3220 nM
- IC50 (second compound 1 µM): 3960 nM
- IC50 (second compound 3.16 µM): 6140 nM
- IC50 (second compound 10 µM): 5250 nM
- viability, T/C [1]: 92%
- viability, T/C [2]: 97.4%
- viability, T/C [3]: 81.2%
- viability, T/C [4]: 69.8%
- viability, T/C [5]: 50.3%
- viability, T/C [6]: 46.1%
- viability, T/C [7]: 94.3%
- viability, T/C [8]: 87.9%
- viability, T/C [9]: 83.1%
- viability, T/C [10]: 71.3%
- viability, T/C [11]: 51.7%
- viability, T/C [12]: 40.3%
- viability, T/C [13]: 108%
- viability, T/C [14]: 93%
- viability, T/C [15]: 76.1%
- viability, T/C [16]: 64.9%
- viability, T/C [17]: 51.3%
- viability, T/C [18]: 36.6%
- viability, T/C [19]: 92.4%
- viability, T/C [20]: 85.5%
- viability, T/C [21]: 83.5%
- viability, T/C [22]: 68.1%
- viability, T/C [23]: 52.5%
- viability, T/C [24]: 40.1%
- viability, T/C [25]: 89.1%
- viability, T/C [26]: 92.4%
- viability, T/C [27]: 85.7%
- viability, T/C [28]: 65.1%
- viability, T/C [29]: 62.9%
- viability, T/C [30]: 42.7%
- viability, T/C [31]: 99.1%
- viability, T/C [32]: 90%
- viability, T/C [33]: 88.7%
- viability, T/C [34]: 70.4%
- viability, T/C [35]: 58.9%
- viability, T/C [36]: 39.9%

SMILES: Cn1ncnc1[C@H]1c2n[nH]c(=O)c3cc(F)cc(c23)N[C@@H]1c1ccc(F)cc1 + COC1C(OC(N)=O)C(O)C(Oc2ccc3c(O)c(NC(=O)c4ccc(O)c(CC=C(C)C)c4)c(=O)oc3c2C)OC1(C)C
- IC50 (second compound 0.0316 µM): > 100 nM
- IC50 (second compound 0.1 µM): > 100 nM
- IC50 (second compound 0.316 µM): > 100 nM
- IC50 (second compound 1 µM): > 100 nM
- IC50 (second compound 3.16 µM): > 100 nM
- IC50 (second compound 10 µM): > 100 nM
- viability, T/C (second compound 0.0316 µM, first compound 0.000316 µM): 98.5%
- viability, T/C (second compound 0.0316 µM, first compound 0.001 µM): 102%
- viability, T/C (second compound 0.0316 µM, first compound 0.00316 µM): 87.2%
- viability, T/C (second compound 0.0316 µM, first compound 0.01 µM): 94.8%
- viability, T/C [1]: 102%
- viability, T/C [2]: 95.9%
- viability, T/C (second compound 0.1 µM, first compound 0.000316 µM): 101%
- viability, T/C (second compound 0.1 µM, first compound 0.001 µM): 102%
- viability, T/C (second compound 0.1 µM, first compound 0.00316 µM): 96.2%
- viability, T/C (second compound 0.1 µM, first compound 0.01 µM): 85.9%
- viability, T/C [7]: 99.5%
- viability, T/C [8]: 84.2%
- viability, T/C (second compound 0.316 µM, first compound 0.000316 µM): 102%
- viability, T/C (second compound 0.316 µM, first compound 0.001 µM): 98.7%
- viability, T/C (second compound 0.316 µM, first compound 0.00316 µM): 102%
- viability, T/C (second compound 0.316 µM, first compound 0.01 µM): 93.1%
- viability, T/C [13]: 94.8%
- viability, T/C [14]: 91.6%
- viability, T/C (second compound 1 µM, first compound 0.000316 µM): 103%
- viability, T/C (second compound 1 µM, first compound 0.001 µM): 99.3%
- viability, T/C (second compound 1 µM, first compound 0.00316 µM): 95.6%
- viability, T/C (second compound 1 µM, first compound 0.01 µM): 103%
- viability, T/C [19]: 94.5%
- viability, T/C [20]: 89.8%
- viability, T/C (second compound 3.16 µM, first compound 0.000316 µM): 101%
- viability, T/C (second compound 3.16 µM, first compound 0.001 µM): 97.7%
- viability, T/C (second compound 3.16 µM, first compound 0.00316 µM): 108%
- viability, T/C (second compound 3.16 µM, first compound 0.01 µM): 89.3%
- viability, T/C [25]: 98.8%
- viability, T/C [26]: 99.3%
- viability, T/C (second compound 10 µM, first compound 0.000316 µM): 98.9%
- viability, T/C (second compound 10 µM, first compound 0.001 µM): 95%
- viability, T/C (second compound 10 µM, first compound 0.00316 µM): 104%
- viability, T/C (second compound 10 µM, first compound 0.01 µM): 90.9%
- viability, T/C [31]: 95.2%
- viability, T/C [32]: 94.9%
